{
  "source": "ChEMBL document CHEMBL1201862",
  "about": "“PubChem BioAssay data set” (2004)",
  "key": {"Caspase-6": {"target": "T1, Caspase-6 (Homo sapiens, UniProt P55212)", "T1 sequence (P55212 whole entry)": "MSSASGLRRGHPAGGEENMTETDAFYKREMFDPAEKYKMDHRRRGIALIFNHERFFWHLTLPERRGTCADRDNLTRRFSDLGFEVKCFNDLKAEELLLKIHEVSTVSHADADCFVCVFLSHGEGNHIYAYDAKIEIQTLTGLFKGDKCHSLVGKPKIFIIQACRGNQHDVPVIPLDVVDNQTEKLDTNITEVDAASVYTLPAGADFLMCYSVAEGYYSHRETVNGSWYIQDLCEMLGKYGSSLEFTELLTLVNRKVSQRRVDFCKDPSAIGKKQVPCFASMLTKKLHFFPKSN", "assay": "human caspase-6 inhibitors, dose response, biochemical, VEID-R110 fluorescence, cherry-pick (AID 720632)"}, "[1]": {"assay": "NIH-3T3 fibroblast cytotoxicity, dose response, cytotoxicity control, cell-based, fluorescence, Alamar Blue, secondary assay (AID 2327);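 note: NIH-3T3 mouse fibroblasts cultured with fluconazole at 8 µg/mL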", "type": "functional"}, "Cytochrome P450 1A2": {"target": "T2, Cytochrome P450 1A2 (Homo sapiens, UniProt P05177)", "T2 sequence (P05177 whole entry)": "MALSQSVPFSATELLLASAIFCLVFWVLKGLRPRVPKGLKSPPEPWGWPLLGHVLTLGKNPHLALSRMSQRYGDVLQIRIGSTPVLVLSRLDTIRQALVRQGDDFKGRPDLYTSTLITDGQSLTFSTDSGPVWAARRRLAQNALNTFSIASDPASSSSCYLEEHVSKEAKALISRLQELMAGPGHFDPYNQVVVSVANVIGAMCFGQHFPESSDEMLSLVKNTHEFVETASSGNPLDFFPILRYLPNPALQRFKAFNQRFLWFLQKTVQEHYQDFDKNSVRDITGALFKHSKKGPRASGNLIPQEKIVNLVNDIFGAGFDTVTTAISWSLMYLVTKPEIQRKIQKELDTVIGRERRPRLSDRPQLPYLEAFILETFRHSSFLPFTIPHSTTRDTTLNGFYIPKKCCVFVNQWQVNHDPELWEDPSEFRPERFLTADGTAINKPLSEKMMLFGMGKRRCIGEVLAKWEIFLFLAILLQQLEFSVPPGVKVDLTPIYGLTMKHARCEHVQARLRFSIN"}, "[2]": {"target": "ATP-dependent molecular chaperone HSP82 (Candida albicans (strain WO-1) (Yeast), UniProt C4YTQ8)", "assay": "loss of DOC-induced GRE-beta-galactosidase reporter signal, dose response, Hsp90 inhibitor project, S. cerevisiae, luminescence (AID 2400);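 note: beta-galactosidase luminescence from glucocorticoid response element reporter as proxy for Hsp90 function; inhibitor potency where signal loss means Hsp90 inhibition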", "type": "functional, cell-based"}, "[3]": {"assay": "HepG2 cell cytotoxicity, dose response, cytotoxicity control for Shn3 inhibitor project, CellTiter-Glo, cherry-picked (AID 624134)", "type": "functional, cell-based"}, "Streptokinase A": {"target": "T3, Streptokinase A (Streptococcus pyogenes serotype M1, UniProt P10520)", "T3 sequence (P10520 whole entry)": "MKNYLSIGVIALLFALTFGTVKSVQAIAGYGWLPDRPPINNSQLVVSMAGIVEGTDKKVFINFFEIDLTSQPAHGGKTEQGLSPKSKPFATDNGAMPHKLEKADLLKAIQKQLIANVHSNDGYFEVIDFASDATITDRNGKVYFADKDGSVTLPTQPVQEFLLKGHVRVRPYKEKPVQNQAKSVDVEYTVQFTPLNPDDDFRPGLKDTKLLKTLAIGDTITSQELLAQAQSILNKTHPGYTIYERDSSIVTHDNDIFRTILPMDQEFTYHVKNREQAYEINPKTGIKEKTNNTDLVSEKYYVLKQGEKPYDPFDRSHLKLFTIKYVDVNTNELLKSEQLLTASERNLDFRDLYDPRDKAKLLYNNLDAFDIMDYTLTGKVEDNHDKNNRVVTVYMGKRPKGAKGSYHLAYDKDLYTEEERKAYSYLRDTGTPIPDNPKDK", "assay": "S. pyogenes streptokinase expression inhibitors, potency, dose response, plasminogen activation absorbance, OD405 (AID 1914);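 note: secreted streptokinase activity via plasminogen activation per viability signal from cell pellet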", "type": "functional, Streptococcus pyogenes M1 GAS"}, "Integrin alpha-4": {"target": "Integrin alpha-4 (Homo sapiens, UniProt P13612)", "sequence (P13612 whole entry)": "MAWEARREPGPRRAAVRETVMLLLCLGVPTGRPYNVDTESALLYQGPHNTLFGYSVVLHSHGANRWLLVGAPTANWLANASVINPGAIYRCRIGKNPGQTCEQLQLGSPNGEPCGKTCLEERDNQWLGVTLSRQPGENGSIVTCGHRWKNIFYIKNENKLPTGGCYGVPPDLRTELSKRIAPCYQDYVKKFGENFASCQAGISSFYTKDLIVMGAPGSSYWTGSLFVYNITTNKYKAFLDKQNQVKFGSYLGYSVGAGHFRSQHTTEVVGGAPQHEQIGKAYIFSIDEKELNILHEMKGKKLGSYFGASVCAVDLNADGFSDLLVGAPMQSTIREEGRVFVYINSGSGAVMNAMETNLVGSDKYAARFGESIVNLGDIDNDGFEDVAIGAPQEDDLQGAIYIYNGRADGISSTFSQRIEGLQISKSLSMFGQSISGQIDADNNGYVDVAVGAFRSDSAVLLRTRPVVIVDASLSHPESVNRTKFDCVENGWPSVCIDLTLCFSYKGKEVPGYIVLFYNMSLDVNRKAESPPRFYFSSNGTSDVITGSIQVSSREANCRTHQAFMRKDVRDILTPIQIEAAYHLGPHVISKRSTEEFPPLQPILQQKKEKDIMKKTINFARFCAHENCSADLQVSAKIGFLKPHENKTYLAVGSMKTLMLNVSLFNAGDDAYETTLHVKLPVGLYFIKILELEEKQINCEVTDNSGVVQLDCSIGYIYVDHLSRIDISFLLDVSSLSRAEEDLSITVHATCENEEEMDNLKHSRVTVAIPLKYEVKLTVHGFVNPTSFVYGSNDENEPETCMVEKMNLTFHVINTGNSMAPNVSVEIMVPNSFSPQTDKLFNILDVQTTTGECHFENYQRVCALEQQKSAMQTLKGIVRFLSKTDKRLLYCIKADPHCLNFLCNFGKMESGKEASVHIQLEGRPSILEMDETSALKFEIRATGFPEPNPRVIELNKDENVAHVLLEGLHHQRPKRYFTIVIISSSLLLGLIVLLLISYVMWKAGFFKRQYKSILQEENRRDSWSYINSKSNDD", "assay": "VLA-4 integrin allosteric ligands, SAR follow-up, cell-based, LIBS antibody binding, flow cytometry (AID 488791)", "type": "functional"}, "[4]": {"target": "Ribosomal protein S6 kinase beta-1 (Homo sapiens, UniProt P23443)", "sequence (P23443 whole entry)": "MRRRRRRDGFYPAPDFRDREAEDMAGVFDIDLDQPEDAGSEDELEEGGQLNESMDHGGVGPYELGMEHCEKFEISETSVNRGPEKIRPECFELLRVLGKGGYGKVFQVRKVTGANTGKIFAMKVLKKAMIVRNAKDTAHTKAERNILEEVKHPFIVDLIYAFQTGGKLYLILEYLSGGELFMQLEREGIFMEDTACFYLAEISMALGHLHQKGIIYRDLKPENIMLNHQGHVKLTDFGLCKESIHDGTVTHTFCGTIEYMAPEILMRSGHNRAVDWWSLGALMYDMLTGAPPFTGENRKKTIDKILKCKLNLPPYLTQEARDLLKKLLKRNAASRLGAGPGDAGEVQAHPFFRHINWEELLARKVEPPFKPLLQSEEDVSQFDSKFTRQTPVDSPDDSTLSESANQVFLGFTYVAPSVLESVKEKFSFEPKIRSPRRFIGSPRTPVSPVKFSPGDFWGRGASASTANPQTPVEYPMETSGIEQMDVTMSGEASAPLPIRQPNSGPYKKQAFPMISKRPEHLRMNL", "type": "functional"}, "[5]": {"target": "Protein kinase C zeta type (Homo sapiens, UniProt Q05513)", "type": "functional"}, "[6]": {"target": "Homeodomain-interacting protein kinase 4 (Homo sapiens, UniProt Q8NE63)", "sequence (Q8NE63 whole entry)": "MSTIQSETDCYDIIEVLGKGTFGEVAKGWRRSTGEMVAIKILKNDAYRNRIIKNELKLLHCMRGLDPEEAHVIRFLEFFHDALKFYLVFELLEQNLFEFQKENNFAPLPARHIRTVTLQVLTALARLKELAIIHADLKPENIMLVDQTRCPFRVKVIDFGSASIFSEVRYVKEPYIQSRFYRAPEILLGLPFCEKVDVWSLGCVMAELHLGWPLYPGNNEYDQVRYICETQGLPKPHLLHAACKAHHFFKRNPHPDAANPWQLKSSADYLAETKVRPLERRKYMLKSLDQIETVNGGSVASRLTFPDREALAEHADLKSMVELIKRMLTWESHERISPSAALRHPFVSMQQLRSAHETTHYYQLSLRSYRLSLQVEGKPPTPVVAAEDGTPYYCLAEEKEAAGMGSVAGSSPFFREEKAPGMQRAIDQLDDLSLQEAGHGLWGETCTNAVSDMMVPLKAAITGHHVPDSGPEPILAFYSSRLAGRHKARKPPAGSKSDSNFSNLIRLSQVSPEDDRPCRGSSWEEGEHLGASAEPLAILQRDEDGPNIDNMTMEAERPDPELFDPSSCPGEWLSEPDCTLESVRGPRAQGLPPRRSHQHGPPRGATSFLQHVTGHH", "type": "functional"}, "[7]": {"target": "Rho-associated protein kinase 1 (Homo sapiens, UniProt Q13464)", "type": "functional"}, "[8]": {"target": "Cyclin-dependent kinase 2 (Homo sapiens, UniProt P24941)", "type": "functional"}, "[9]": {"target": "Mitogen-activated protein kinase 9 (Homo sapiens, UniProt P45984)", "sequence (P45984 whole entry)": "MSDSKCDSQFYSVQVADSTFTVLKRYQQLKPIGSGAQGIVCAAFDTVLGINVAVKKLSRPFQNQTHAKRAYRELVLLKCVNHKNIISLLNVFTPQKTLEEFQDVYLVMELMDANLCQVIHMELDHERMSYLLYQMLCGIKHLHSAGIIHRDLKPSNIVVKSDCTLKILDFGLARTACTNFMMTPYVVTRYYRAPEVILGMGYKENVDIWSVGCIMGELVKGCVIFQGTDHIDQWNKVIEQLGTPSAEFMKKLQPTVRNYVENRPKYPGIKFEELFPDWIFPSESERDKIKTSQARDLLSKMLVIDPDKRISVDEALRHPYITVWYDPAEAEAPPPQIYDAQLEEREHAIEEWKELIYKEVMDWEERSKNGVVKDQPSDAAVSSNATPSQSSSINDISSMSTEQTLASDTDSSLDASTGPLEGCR", "type": "functional"}, "[10]": {"target": "Fibroblast growth factor receptor 1 (Homo sapiens, UniProt P11362)", "sequence (P11362 whole entry)": "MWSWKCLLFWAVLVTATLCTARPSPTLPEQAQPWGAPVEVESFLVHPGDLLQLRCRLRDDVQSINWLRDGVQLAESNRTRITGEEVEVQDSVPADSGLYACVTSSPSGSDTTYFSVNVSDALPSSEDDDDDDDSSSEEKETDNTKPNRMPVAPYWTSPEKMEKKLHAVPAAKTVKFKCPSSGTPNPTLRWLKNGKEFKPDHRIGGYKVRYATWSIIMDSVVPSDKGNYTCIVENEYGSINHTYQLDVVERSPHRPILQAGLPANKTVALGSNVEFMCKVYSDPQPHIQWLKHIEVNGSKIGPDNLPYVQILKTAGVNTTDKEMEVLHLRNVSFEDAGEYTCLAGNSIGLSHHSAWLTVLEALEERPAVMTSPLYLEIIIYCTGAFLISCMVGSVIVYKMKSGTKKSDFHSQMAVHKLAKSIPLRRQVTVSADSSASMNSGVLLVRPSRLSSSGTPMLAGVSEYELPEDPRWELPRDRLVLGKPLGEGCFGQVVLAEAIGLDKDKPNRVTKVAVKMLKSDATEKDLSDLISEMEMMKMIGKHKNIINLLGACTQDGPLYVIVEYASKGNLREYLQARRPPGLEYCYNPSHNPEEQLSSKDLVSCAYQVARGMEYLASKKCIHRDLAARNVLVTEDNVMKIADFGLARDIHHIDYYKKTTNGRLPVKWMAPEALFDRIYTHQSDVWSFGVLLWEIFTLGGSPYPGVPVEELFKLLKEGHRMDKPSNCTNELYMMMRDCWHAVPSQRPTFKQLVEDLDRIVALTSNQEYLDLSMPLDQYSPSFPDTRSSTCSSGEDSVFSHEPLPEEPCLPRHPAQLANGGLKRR", "type": "functional"}, "[11]": {"target": "Calcium/calmodulin-dependent protein kinase type II subunit delta (Homo sapiens, UniProt Q13557)", "type": "functional"}, "[12]": {"target": "Eukaryotic elongation factor 2 kinase (Homo sapiens, UniProt O00418)", "type": "functional"}, "[13]": {"target": "Serine/threonine-protein kinase 17A (Homo sapiens, UniProt Q9UEE5)", "type": "functional"}, "Aurora kinase A": {"target": "Aurora kinase A (Homo sapiens, UniProt O14965)", "type": "functional"}, "[14]": {"target": "Tyrosine-protein kinase receptor UFO (Homo sapiens, UniProt P30530)", "sequence (P30530 whole entry)": "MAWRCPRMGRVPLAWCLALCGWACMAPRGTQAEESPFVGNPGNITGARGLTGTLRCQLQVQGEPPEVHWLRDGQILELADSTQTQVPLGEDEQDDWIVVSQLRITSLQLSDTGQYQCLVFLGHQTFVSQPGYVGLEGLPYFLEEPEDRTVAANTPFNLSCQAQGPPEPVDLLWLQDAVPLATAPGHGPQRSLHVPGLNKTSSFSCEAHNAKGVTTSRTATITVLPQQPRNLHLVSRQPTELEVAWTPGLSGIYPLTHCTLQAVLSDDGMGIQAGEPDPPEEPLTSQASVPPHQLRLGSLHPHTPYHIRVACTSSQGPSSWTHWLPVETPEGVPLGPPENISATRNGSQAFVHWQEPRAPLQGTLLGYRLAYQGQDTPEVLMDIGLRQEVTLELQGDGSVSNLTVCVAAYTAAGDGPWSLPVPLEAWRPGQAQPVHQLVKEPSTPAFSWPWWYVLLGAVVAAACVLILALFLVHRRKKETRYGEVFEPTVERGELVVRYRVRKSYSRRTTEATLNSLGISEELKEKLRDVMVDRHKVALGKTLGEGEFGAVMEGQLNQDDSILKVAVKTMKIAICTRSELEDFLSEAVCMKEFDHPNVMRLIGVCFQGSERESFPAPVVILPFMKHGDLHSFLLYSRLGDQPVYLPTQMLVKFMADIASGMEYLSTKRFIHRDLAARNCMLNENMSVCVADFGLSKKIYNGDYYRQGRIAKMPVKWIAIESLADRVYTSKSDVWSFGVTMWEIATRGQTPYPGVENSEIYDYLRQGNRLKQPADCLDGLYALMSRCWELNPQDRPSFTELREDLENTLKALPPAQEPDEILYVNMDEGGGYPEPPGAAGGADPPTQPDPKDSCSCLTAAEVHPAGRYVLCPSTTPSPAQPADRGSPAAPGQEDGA", "type": "functional"}, "Activin receptor type-1": {"target": "Activin receptor type-1 (Homo sapiens, UniProt Q04771)", "sequence (Q04771 whole entry)": "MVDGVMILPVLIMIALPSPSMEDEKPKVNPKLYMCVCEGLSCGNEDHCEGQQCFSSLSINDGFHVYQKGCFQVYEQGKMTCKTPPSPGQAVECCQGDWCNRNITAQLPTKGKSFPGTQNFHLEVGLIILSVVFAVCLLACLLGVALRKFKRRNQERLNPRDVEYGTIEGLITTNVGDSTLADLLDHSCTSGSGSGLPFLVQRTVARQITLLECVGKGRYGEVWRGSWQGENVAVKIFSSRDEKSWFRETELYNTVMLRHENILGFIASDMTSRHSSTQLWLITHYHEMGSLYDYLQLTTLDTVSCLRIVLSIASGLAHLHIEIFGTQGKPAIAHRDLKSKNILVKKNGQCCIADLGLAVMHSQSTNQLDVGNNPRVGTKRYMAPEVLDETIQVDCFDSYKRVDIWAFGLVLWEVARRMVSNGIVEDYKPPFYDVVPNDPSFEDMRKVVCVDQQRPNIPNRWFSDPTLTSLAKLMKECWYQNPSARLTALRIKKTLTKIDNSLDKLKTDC", "assay": "Navigating the Kinome. Panel member name: ACVR1", "type": "functional"}, "[15]": {"target": "Protein kinase C delta type (Homo sapiens, UniProt Q05655)", "type": "functional"}},
  "note": "Calls of active or inactive are those of the source.",
  "data": [
    {"smiles": "O=C(NN1C(=O)CSC1=S)C(=O)NN1C(=O)CSC1=S", "values": [
      {"measurement": "AC50", "setting": "Caspase-6", "result": "276 nM (active)"}
    ]},
    {"smiles": "CN(C)S(=O)(=O)Oc1cccc(C(=O)Nc2ccc(Cl)c(Cl)c2)c1", "values": [
      {"measurement": "EC50", "setting": "[1]", "result": "> 150 µM (inactive)"},
      {"measurement": "AC50", "setting": "Cytochrome P450 1A2", "result": "2 µM (inconclusive)"},
      {"measurement": "EC50", "setting": "[2]", "result": "18.2 µM (active)"}
    ]},
    {"smiles": "COC(=O)C1CN(C#N)N(c2ccc(Cl)cc2)C12c1ccccc1-c1ccccc12", "note": "(stereo unspecified)", "values": [
      {"measurement": "AC50", "setting": "[3]", "result": "8.85 µM (active)"},
      {"measurement": "EC50", "setting": "Streptokinase A", "result": "744 nM (active)"},
      {"measurement": "EC50", "setting": "Integrin alpha-4", "result": "18.9 µM (active)"}
    ]},
    {"smiles": "Nc1noc2cccc(-c3cccc(O)c3)c12", "values": [
      {"measurement": "Ki", "setting": "[4]", "result": "126 nM (active)"},
      {"measurement": "Ki", "setting": "[5]", "result": "> 7.94 µM (inactive)"},
      {"measurement": "Ki", "setting": "[6]", "result": "> 7.94 µM (inactive)"},
      {"measurement": "Ki", "setting": "[7]", "result": "1 µM (active)"},
      {"measurement": "Ki", "setting": "[8]", "result": "> 7.94 µM (inactive)"},
      {"measurement": "Ki", "setting": "[9]", "result": "> 3.98 µM (inactive)"},
      {"measurement": "Ki", "setting": "[10]", "result": "15.8 µM (active)"},
      {"measurement": "Ki", "setting": "[11]", "result": "2.51 µM (active)"},
      {"measurement": "Ki", "setting": "[12]", "result": "> 3.98 µM (inactive)"},
      {"measurement": "Ki", "setting": "[13]", "result": "> 3.98 µM (inactive)"},
      {"measurement": "Ki", "setting": "Aurora kinase A", "result": "> 31.6 µM (inactive)"},
      {"measurement": "Ki", "setting": "[14]", "result": "> 2 µM (inactive)"},
      {"measurement": "Ki", "setting": "Activin receptor type-1", "result": "631 nM (active)"},
      {"measurement": "Ki", "setting": "[15]", "result": "> 7.94 µM (inactive)"}
    ]}
  ]
}
